Patent US9029377B2, “Platelet-activating factor receptor antagonists” (Merck Sharp & Dohme Corp., priority 2009, dated 2015)

Biological target: PAFR (Homo sapiens, UniProt P25105)
Experiment: PAF Binding Assay (PAFR binding)

Chain of PAFR (P25105 whole entry): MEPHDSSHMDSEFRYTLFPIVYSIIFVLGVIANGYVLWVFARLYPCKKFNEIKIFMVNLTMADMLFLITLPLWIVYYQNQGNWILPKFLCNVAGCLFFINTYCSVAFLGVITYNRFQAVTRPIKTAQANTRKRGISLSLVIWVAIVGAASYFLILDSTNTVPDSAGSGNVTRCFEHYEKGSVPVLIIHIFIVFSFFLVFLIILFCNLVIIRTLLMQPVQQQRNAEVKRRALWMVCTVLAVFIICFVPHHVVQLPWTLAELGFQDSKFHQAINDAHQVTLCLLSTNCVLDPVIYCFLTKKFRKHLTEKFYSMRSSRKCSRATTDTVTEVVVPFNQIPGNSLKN

Compound	IC50 [nM]
O=S(=O)(N[C@H]1CCC[C@@H](n2cnnc2)C1)c1cc(-c2cc(Cl)cn3cc(CCl)nc23)cc(C(F)(F)F)c1 [Compound 3Aav, 3-[6-chloro-2-(chloromethyl)imidazo[1,2-a]pyridin-8-yl]-N-[(1S,3R)-3-(4H-1,2,4-triazol-4-yl)cyclohexyl]-5-(trifluoromethyl)benzenesulfonamide]	22
O=S(=O)(N[C@H]1CCC[C@@H](n2cnnc2)C1)c1cc(-c2ccc3nc(C4CC4)nn3c2)cc(C(F)(F)F)c1 [Compound 3Aaq, 3-(2-cyclopropyl[1,2,4]triazolo[1,5-a]pyridin-6-yl)-N-[(1S,3R)-3-(4H-1,2,4-triazol-4-yl)cyclohexyl]-5-(trifluoromethyl)benzenesulfonamide]	20
CCc1cc(-c2ccc(C(F)(F)F)cc2C(F)(F)F)ccc1S(=O)(=O)N[C@H]1CCC[C@@H](n2cnnc2)C1 [Compound 2Abm, 3-ethyl-N-[(1S,3R)-3-(4H-1,2,4-triazol-4-yl)cyclohexyl]-2′,4′-bis(trifluoromethyl)biphenyl-4-sulfonamide]	83
O=S(=O)(N[C@H]1CCC[C@@H](n2cnnc2)C1)c1cc(-c2cc3ccccc3o2)cc(C(F)(F)F)c1 [Compound 3Aae, 3-(1-benzofuran-2-yl)-N-[(1S,3R)-3-(4H-1,2,4-triazol-4-yl)cyclohexyl]-5-(trifluoromethyl)benzenesulfonamide]	1.8
CCCCOc1ccc(S(=O)(=O)N[C@H]2CCC[C@@H](n3cnnc3C)C2)cc1F [Compound 2Fj, 4-butoxy-3-fluoro-N-[(1S,3R)-3-(3-methyl-4H-1,2,4-triazol-4-yl)cyclohexyl]benzenesulfonamide]	1.9
Cc1nncn1[C@H]1C[C@@H](NS(=O)(=O)c2ccc(OCCCCF)c(F)c2)CC(F)(F)C1 [Compound 2Hi, N-[(1R,5S)-3,3-difluoro-5-(3-methyl-4H-1,2,4-triazol-4-yl)cyclohexyl]-3-fluoro-4-(4-fluorobutoxy)benzenesulfonamide]	6.8
O=S(=O)(N[C@H]1CCC[C@@H](n2cnnc2)C1)c1ccc(-c2ccc(OC(F)(F)F)cc2)cc1OC(F)(F)F [Compound 2Bal, N-[(1S,3R)-3-(4H-1,2,4-triazol-4-yl)cyclohexyl]-3,4′-bis(trifluoromethoxy)biphenyl-4-sulfonamide]	15
O=S(=O)(N[C@H]1CCC[C@@H](n2cnnc2)C1)c1cc(-c2ccn3nccc3n2)cc(C(F)(F)F)c1 [Compound 3Aak, 3-pyrazolo[1,5-a]pyrimidin-5-yl-N-[(1S,3R)-3-(4H-1,2,4-triazol-4-yl)cyclohexyl]-5-(trifluoromethyl)benzenesulfonamide]	3.6
Cc1nncn1[C@@H]1CCC[C@H](NS(=O)(=O)c2ccc(-c3noc(C4CCC4)n3)cc2OC(F)(F)F)C1 [Compound 2Bbg, 4-(5-cyclobutyl-1,2,4-oxadiazol-3-yl)-N-[(1S,3R)-3-(3-methyl-4H-1,2,4-triazol-4-yl)cyclohexyl]-2-(trifluoromethoxy)benzenesulfonamide]	1.5
CCc1cc(-c2cccc3cccnc23)ccc1S(=O)(=O)N[C@H]1CCC[C@@H](n2cnnc2)C1 [Compound 2Aae, 2-ethyl-4-quinolin-8-yl-N-[(1S,3R)-3-(4H-1,2,4-triazol-4-yl)cyclohexyl]benzenesulfonamide]	4.9

Results, then the compound that gave them:

IC50 [nM]	Compound
25	CCc1cc(-n2cc(C)cn2)ccc1S(=O)(=O)N[C@H]1CCC[C@@H](n2cnnc2)C1 [Compound 6b, 2-ethyl-4-(4-methyl-1H-pyrazol-1-yl)-N-[(1S,3R)-3-(4H-1,2,4-triazol-4-yl)cyclohexyl]benzenesulfonamide]
0.8	Cc1nncn1[C@@H]1CCC[C@H](NS(=O)(=O)c2ccc(-c3ccc(OCC(F)(F)F)cc3)c(F)c2)C1 [Compound 2Fb, 2-fluoro-N-[(1S,3R)-3-(3-methyl-4H-1,2,4-triazol-4-yl)cyclohexyl]-4′-(2,2,2-trifluoroethoxy)biphenyl-4-sulfonamide]
7.2	CC(C)Oc1ccc(-c2ccc(S(=O)(=O)N[C@@H]3C[C@H](n4cnnc4)CC(F)(F)C3)cc2F)cc1 [Compound 2Gd, N-[(1R,5S)-3,3-difluoro-5-(4H-1,2,4-triazol-4-yl)cyclohexyl]-2-fluoro-4′-isopropoxybiphenyl-4-sulfonamide]
4.9	O=S(=O)(N[C@H]1CCC[C@@H](n2cnnc2)C1)c1cc(-c2ccccc2OC(F)(F)F)cc(C(F)(F)F)c1 [Compound 3Am, N-[(1S,3R)-3-(4H-1,2,4-triazol-4-yl)cyclohexyl]-2′-(trifluoromethoxy)-5-(trifluoromethyl)biphenyl-3-sulfonamide]
28	Cc1nncn1[C@@H]1CCC[C@H](NS(=O)(=O)c2ccc(C(C)C)cc2)C1 [Compound 2Nq, 4-isopropyl-N-[(1S,3R)-3-(3-methyl-4H-1,2,4-triazol-4-yl)cyclohexyl]benzenesulfonamide]
0.1	O=S(=O)(N[C@H]1CCC[C@@H](n2cnnc2)C1)c1c(C2CC2)cc(-c2noc(C3CCC3)n2)cc1C1CC1 [Compound 2Rb, 4-(5-cyclobutyl-1,2,4-oxadiazol-3-yl)-2,6-dicyclopropyl-N-[(1S,3R)-3-(4H-1,2,4-triazol-4-yl)cyclohexyl]benzenesulfonamide]
5.8	O=S(=O)(N[C@H]1CCC[C@@H](n2cnnc2)C1)c1ccc(-c2ccc(OC(F)(F)F)cc2)c(F)c1 [Compound 2Ea, 2-fluoro-N-[(1S,3R)-3-(4H-1,2,4-triazol-4-yl)cyclohexyl]-4′-(trifluoromethoxy)biphenyl-4-sulfonamide]
8.6	O=S(=O)(N[C@H]1CCC[C@@H](n2cnnc2)C1)c1c(F)cc(-c2noc(C3CC3)n2)cc1C1CC1 [Compound 2Sa, 2-cyclopropyl-4-(5-cyclopropyl-1,2,4-oxadiazol-3-yl)-6-fluoro-N-[(1S,3R)-3-(4H-1,2,4-triazol-4-yl)cyclohexyl]benzenesulfonamide]
15	O=S(=O)(N[C@H]1CCC[C@@H](n2cnnc2)C1)c1cc(-c2ccnc(F)c2)cc(C(F)(F)F)c1 [Compound 3Av, 3-(2-fluoropyridin-4-yl)-N-[(1S,3R)-3-(4H-1,2,4-triazol-4-yl)cyclohexyl]-5-(trifluoromethyl)benzenesulfonamide]
2.6	O=S(=O)(N[C@H]1CCC[C@@H](n2cnnc2)C1)c1c(F)cc(-c2noc(C3CCC3)n2)cc1C1CC1 [Compound 2Sb, 4-(5-cyclobutyl-1,2,4-oxadiazol-3-yl)-2-cyclopropyl-6-fluoro-N-[(1S,3R)-3-(4H-1,2,4-triazol-4-yl)cyclohexyl]benzenesulfonamide]
10	O=S(=O)(N[C@H]1CCC[C@@H](n2cnnc2)C1)c1cc(F)cc(-c2ccccc2)c1 [Compound 3Fa, 5-fluoro-N-[(1S,3R)-3-(4H-1,2,4-triazol-4-yl)cyclohexyl]biphenyl-3-sulfonamide]
2.5	O=S(=O)(N[C@H]1CCC[C@@H](n2cnnc2C2CC2)C1)c1ccc(-c2noc(C3CCC3)n2)cc1OC(F)(F)F [Compound 2Bc, 4-(5-cyclobutyl-1,2,4-oxadiazol-3-yl)-N-[(1S,3R)-3-(3-cycloropyl-4H-1,2,4-triazol-4-yl)cyclohexyl]-2-(trifluoromethoxy)benzenesulfonamide]
56	Cc1nncn1[C@@H]1CCC[C@H](NS(=O)(=O)c2ccc(-n3nccc3C3CC3)cc2)C1 [Compound 2Nr, 4-(5-cyclopropyl-1H-pyrazol-1-yl)-N-[(1S,3R)-3-(3-methyl-4H-1,2,4-triazol-4-yl)cyclohexyl]benzenesulfonamide]
